Reference: patent US8501936B2 (priority 2009, dated 2013)

Experiments:
human JAK2 = human JAK2 (Homo sapiens (Human), UniProt O60674); conditions: read-out: JAK2 IC50
human FAK = human FAK (Homo sapiens (Human), UniProt Q05397); conditions: read-out: FAK IC50
human FAK, sequence (Q05397 whole entry): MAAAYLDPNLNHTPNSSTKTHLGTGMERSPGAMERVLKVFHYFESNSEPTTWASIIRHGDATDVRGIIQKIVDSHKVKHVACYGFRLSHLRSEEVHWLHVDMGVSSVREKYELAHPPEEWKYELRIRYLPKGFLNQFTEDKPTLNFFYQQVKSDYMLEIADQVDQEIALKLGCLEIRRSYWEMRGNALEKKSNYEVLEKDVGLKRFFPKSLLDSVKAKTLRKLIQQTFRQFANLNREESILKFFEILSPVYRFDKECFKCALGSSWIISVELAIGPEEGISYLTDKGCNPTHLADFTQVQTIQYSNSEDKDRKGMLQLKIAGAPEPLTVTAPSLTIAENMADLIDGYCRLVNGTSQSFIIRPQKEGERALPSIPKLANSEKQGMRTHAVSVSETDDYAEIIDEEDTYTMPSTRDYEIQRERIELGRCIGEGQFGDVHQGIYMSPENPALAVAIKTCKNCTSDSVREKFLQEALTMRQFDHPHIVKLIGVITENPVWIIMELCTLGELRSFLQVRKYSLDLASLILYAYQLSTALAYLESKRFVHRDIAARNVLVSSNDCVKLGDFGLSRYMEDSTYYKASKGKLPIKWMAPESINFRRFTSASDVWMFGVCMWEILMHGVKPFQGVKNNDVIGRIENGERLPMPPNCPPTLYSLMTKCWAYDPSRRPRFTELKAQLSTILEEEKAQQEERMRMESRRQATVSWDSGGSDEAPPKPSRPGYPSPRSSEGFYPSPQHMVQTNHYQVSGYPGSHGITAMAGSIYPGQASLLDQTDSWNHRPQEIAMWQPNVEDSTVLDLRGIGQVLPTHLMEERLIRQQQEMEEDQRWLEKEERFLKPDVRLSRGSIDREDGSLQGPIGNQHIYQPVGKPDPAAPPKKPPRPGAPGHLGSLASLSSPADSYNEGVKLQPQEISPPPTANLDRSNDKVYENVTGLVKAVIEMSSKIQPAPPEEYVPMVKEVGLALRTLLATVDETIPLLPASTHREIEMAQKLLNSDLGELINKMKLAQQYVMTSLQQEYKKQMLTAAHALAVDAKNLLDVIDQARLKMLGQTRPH

human JAK2, sequence (O60674 815-1132): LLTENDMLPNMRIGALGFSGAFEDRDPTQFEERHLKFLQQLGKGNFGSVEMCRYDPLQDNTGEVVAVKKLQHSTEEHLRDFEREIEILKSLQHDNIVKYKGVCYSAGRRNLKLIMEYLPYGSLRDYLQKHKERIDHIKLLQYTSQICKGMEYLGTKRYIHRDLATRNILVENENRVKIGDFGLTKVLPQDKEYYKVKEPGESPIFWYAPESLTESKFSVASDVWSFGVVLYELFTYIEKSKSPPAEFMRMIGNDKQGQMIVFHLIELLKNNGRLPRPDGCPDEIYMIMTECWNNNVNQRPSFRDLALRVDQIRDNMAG

Structure (SMILES): COc1cc(F)ccc1-c1cccn2nc(Nc3ccc4c(c3)CCN(CC(=O)N(C)C)CC4)nc12 [Example 324, 2-{7-[8-(4-Fluoro-2-methoxy-phenyl)-[1,2,4]triazolo[1,5-a]pyridin-2-ylamino]-1,2,4,5-tetrahydro-3-benzazepin-3-yl}-N,N-dimethyl-acetamide]
- IC50 (human JAK2): 0.047 µM
- IC50 (human FAK): 3 µM

Structure (SMILES): FC(F)COc1ccc(C(F)(F)F)cc1-c1cccn2nc(Nc3ccc4c(c3)CCNCC4)nc12 [Example 328]
- IC50 (human JAK2): 0.257 µM
- IC50 (human FAK): 0.999 µM

Structure (SMILES): CN(C)C(=O)CN1CCc2ccc(Nc3nc4c(-c5cc(C(F)(F)F)ccc5OCC(F)F)cccn4n3)cc2CC1 [Example 329, 2-(7-{8-[2-(2,2-Difluoro-ethoxy)-5-trifluoromethyl-phenyl]-[1,2,4]triazolo[1,5-a]pyridin-2-ylamino}-1,2,4,5-tetrahydro-3-benzazepin-3-yl)-N,N-dimethyl-acetamide]
- IC50 (human JAK2): 0.317 µM
- IC50 (human FAK): 0.999 µM

Structure (SMILES): COc1cc(Cl)ccc1-c1cccn2nc(Nc3ccc4c(c3)CCN(CC(=O)N(C)C)C4)nc12 [Example 331, 2-{6-[8-(4-Chloro-2-methoxy-phenyl)-[1,2,4]-triazolo[1,5-a]pyridin-2-ylamino]-3,4-dihydro-1H-isoquinolin-2-yl}-N,N-dimethyl-acetamide]
- IC50 (human JAK2): 0.0213 µM
- IC50 (human FAK): 6.5 µM

Structure (SMILES): COc1ccc(C(F)(F)F)cc1-c1cccn2nc(Nc3ccc4c(c3)CCN(C(=O)OC(C)(C)C)C4)nc12 [Example 336, 6-[8-(2-Methoxy-5-trifluoromethyl-phenyl)-[1,2,4]triazolo[1,5-a]pyridin-2-ylamino]-3,4-dihydro-1H-isoquinoline-2-carboxylic acid tert-butyl ester]
- IC50 (human JAK2): 1.15 µM
- IC50 (human FAK): 10 µM

Structure (SMILES): COc1ccc(C(F)(F)F)cc1-c1cccn2nc(Nc3ccc4c(c3)CCNC4)nc12 [Example 337, [8-(2-Methoxy-5-trifluoromethyl-phenyl)-[1,2,4]triazolo[1,5-a]pyridine-2-yl]-(1,2,3,4-tetrahydro-isoquinolin-6-yl)-amine]
- IC50 (human JAK2): 0.0419 µM
- IC50 (human FAK): 0.778 µM

Structure (SMILES): COc1ccc(C(F)(F)F)cc1-c1cccn2nc(Nc3ccc4c(c3)CCN(CC(=O)N(C)C)C4)nc12 [Example 338, 2-{6-[8-(2-Methoxy-5-trifluoromethyl-phenyl)-[1,2,4]-triazolo[1,5-a]pyridin-2-ylamino]-3,4-dihydro-1H-isoquinolin-2-yl}-N,N-dimethyl-acetamide]
- IC50 (human JAK2): 0.0414 µM
- IC50 (human FAK): 1.37 µM

Structure (SMILES): CN1CCN(c2cccc(Nc3nc4c(-c5ccc(F)cc5)cccn4n3)c2)CC1 [Example 365, [8-(4-Fluoro-phenyl)-[1,2,4]-triazolo[1,5-a]pyridin-2-yl]-[3-(4-methyl-piperazin-1-yl)-phenyl]-amine]
- IC50 (human JAK2): 0.0291 µM
- IC50 (human FAK): 0.999 µM

Structure (SMILES): CN(C)C(=O)CN1CCc2ccc(Nc3nc4c(-c5ccccc5OCC(F)F)cccn4n3)cc2CC1 [Example 368, 2-(7-{8-[2-(2,2-Difluoro-ethoxy)-phenyl]-[1,2,4]triazolo[1,5-a]pyridin-2-ylamino}-1,2,4,5-tetrahydro-3-benzazepin-3-yl)-N,N-dimethyl-acetamide]
- IC50 (human JAK2): 0.197 µM
- IC50 (human FAK): 2.43 µM

Structure (SMILES): CS(=O)(=O)c1ccc(-c2cccn3nc(Nc4ccc5c(c4)CCNCC5)nc23)c(OCC(F)F)c1 [Example 370, {8-[2-(2,2-Difluoro-ethoxy)-4-methanesulfonyl-phenyl]-[1,2,4]triazolo[1,5-a]pyridin-2-yl}-(2,3,4,5-tetrahydro-1H-3-benzazepin-7-yl)-amine]
- IC50 (human JAK2): 0.0619 µM
- IC50 (human FAK): 0.999 µM

Structure (SMILES): CS(=O)(=O)c1ccc(OCC(F)F)c(-c2cccn3nc(Nc4ccc5c(c4)CCNCC5)nc23)c1 [Example 372, {8-[2-(2,2-Difluoro-ethoxy)-5-methanesulfonyl-phenyl]-[1,2,4]triazolo[1,5-a]pyridin-2-yl}-(2,3,4,5-tetrahydro-1H-3-benzazepin-7-yl)-amine]
- IC50 (human JAK2): 0.6 µM
- IC50 (human FAK): 10 µM

Structure (SMILES): CN(C)C(=O)CN1CCc2ccc(Nc3nc4c(-c5cc(S(C)(=O)=O)ccc5OCC(F)F)cccn4n3)cc2CC1 [Example 373, 2-(7-{8-[2-(2,2-Difluoro-ethoxy)-5-methanesulfonyl-phenyl]-[1,2,4]triazolo[1,5-a]pyridin-2-ylamino}-1,2,4,5-tetrahydro-3-benzazepin-3-yl)-N,N-dimethyl-acetamide]
- IC50 (human JAK2): 0.505 µM
- IC50 (human FAK): 10 µM

Structure (SMILES): FC(F)(F)c1cccc(-c2cccn3nc(Nc4ccc5c(c4)CCNCC5)nc23)c1 [Example 375, (2,3,4,5-Tetrahydro-1H-3-benzazepin-7-yl)-[8-(3-trifluoromethyl-phenyl)-[1,2,4]triazolo[1,5-a]pyridin-2-yl]-amine]
- IC50 (human JAK2): 0.0425 µM
- IC50 (human FAK): 0.422 µM

Structure (SMILES): FC(F)COc1ccc(Cl)cc1-c1cccn2nc(Nc3ccc4c(c3)CCNCC4)nc12 [Example 377, {8-[5-Chloro-(2,2-difluoro-ethoxy)-phenyl]-[1,2,4]triazolo[1,5-a]pyridin-2-yl}-(2,3,4,5-tetrahydro-1H-3-benzazepin-7-yl)-amine]
- IC50 (human JAK2): 0.044 µM
- IC50 (human FAK): 0.443 µM

Structure (SMILES): CN(C)C(=O)CN1CCc2ccc(Nc3nc4c(-c5cc(F)ccc5OCC(F)F)cccn4n3)cc2CC1 [Example 378, 2-(7-{8-[2-(2,2-Difluoro-ethoxy)-5-fluoro-phenyl]-[1,2,4]triazolo[1,5-a]pyridin-2-ylamino}-1,2,4,5-tetrahydro-3-benzazepin-3-yl)-N,N-dimethyl-acetamide]
- IC50 (human JAK2): 0.52 µM
- IC50 (human FAK): 1.25 µM

Structure (SMILES): CC(C)COc1ccc(C(F)(F)F)cc1-c1cccn2nc(Nc3ccc4c(c3)CCN(CC(=O)N(C)C)CC4)nc12 [Example 380]
- IC50 (human JAK2): 3 µM
- IC50 (human FAK): 3 µM

Structure (SMILES): CN(C)C(=O)N1CCc2ccc(Nc3nc4c(-c5cc(Cl)ccc5OCC(F)F)cccn4n3)cc2CC1 [Example 382, 7-{8-[5-Chloro-2-(2,2-difluoro-ethoxy)-phenyl]-[1,2,4]triazolo[1,5-a]pyridin-2-ylamino}-1,2,4,5-tetrahydro-3-benzazepine-3-carboxylic acid dimethylamide]
- IC50 (human JAK2): 0.198 µM
- IC50 (human FAK): 2 µM

Structure (SMILES): FC(F)COc1ccc(C(F)F)cc1-c1cccn2nc(Nc3ccc4c(c3)CCNCC4)nc12 [Example 384, {8-[2-(2,2-Difluoro-ethoxy)-5-difluoromethyl-phenyl]-[1,2,4]triazolo[1,5-a]pyridin-2-yl}-(2,3,4,5-tetrahydro-1H-3-benzazepin-7-yl)-amine]
- IC50 (human JAK2): 0.203 µM
- IC50 (human FAK): 1.08 µM

Structure (SMILES): CN(C)C(=O)CN1CCc2ccc(Nc3nc4c(-c5cc(C(F)F)ccc5OCC(F)F)cccn4n3)cc2CC1 [Example 385, 2-(7-{8-[2-(2,2-difluoro-ethoxy)-5-difluoromethyl-phenyl]-[1,2,4]triazolo[1,5-a]pyridin-2-ylamino}-1,2,4,5-tetrahydro-3-benzazepin-3-yl)-N,N-dimethyl-acetamide]
- IC50 (human JAK2): 0.27 µM
- IC50 (human FAK): 1.12 µM

Structure (SMILES): CN1CCN(c2cncc(Nc3nc4c(-c5ccc(S(C)(=O)=O)cc5)cccn4n3)n2)CC1 [Example 386, [8-(4-Methanesulfonyl-phenyl)-[1,2,4]triazolo[1,5-a]pyridin-2-yl]-(4-methyl-3,4,5,6-tetrahydro-2H-[1,2′]bipyrazinyl-6′-yl)-amine]
- IC50 (human JAK2): 0.0299 µM
- IC50 (human FAK): 10 µM

Structure (SMILES): COc1ccccc1CNc1cccn2nc(Nc3ccc(N4CCN(C)CC4)cc3)nc12 [Example 387, N(8)-(2-Methoxy-benzyl)-N(2)-[4-(4-methyl-piperazin-1-yl)-phenyl]-[1,2,4]triazolo[1,5-a]pyridine-2,8-diamine]
- IC50 (human JAK2): 0.0123 µM
- IC50 (human FAK): 0.553 µM

Structure (SMILES): COc1ccccc1CNc1cccn2nc(Nc3cccc(N4CCN(C)CC4)c3)nc12 [Example 388, N(8)-(2-Methoxy-benzyl)-N(2)-[3-(4-methyl-piperazin-1-yl)-phenyl]-[1,2,4]triazolo[1,5-a]pyridine-2,8-diamine]
- IC50 (human JAK2): 0.046 µM
- IC50 (human FAK): 0.951 µM

Structure (SMILES): CN1CCN(c2cncc(Nc3nc4c(NCc5ccccc5N(C)S(C)(=O)=O)cccn4n3)n2)CC1 [Example 389, N-Methyl-N-(2-{[2-(4-methyl-3,4,5,6-tetrahydro-2H-[1,2′]bipyrazinyl-6′-ylamino)-[1,2,4]triazolo[1,5-a]pyridin-8-ylamino]-methyl}-phenyl)-methanesulfonamide]
- IC50 (human JAK2): 6.5 µM
- IC50 (human FAK): 1.06 µM

Structure (SMILES): COc1cccc(CNc2cccn3nc(Nc4ccc(N5CCN(C)CC5)cc4)nc23)c1 [Example 390, N(8)-(3-Methoxy-benzyl)-N(2)-[4-(4-methyl-piperazin-1-yl)-phenyl]-[1,2,4]triazolo[1,5-a]pyridine-2,8-diamine]
- IC50 (human JAK2): 1.34 µM
- IC50 (human FAK): 10 µM

Structure (SMILES): COc1ccc(CNc2cccn3nc(Nc4ccc(N5CCN(C)CC5)cc4)nc23)cc1 [Example 391, N(8)-(4-Methoxy-benzyl)-N(2)-[4-(4-methyl-piperazin-1-yl)-phenyl]-[1,2,4]triazolo[1,5-a]pyridine-2,8-diamine]
- IC50 (human JAK2): 3.02 µM
- IC50 (human FAK): 10 µM

Structure (SMILES): COc1cccc(CNc2cccn3nc(Nc4cccc(N5CCN(C)CC5)c4)nc23)c1 [Example 392, N(8)-(3-Methoxy-benzyl)-N(2)-[3-(4-methyl-piperazin-1-yl)-phenyl]-[1,2,4]triazolo[1,5-a]pyridine-2,8-diamine]
- IC50 (human JAK2): 3 µM
- IC50 (human FAK): 10 µM

Structure (SMILES): COc1ccc(CNc2cccn3nc(Nc4cccc(N5CCN(C)CC5)c4)nc23)cc1 [Example 393, N(8)-(4-Methoxy-benzyl)-N(2)-[3-(4-methyl-piperazin-1-yl)-phenyl]-[1,2,4]triazolo[1,5-a]pyridine-2,8-diamine]
- IC50 (human JAK2): 10 µM
- IC50 (human FAK): 10 µM

Structure (SMILES): COc1cccc(CNc2cccn3nc(Nc4ccc(OC)nc4)nc23)c1 [Example 394, N(8)-(3-Methoxy-benzyl)-N(2)-(6-methoxy-pyridin-3-yl)-[1,2,4]triazolo[1,5-a]pyridine-2,8-diamine]
- IC50 (human JAK2): 10 µM
- IC50 (human FAK): 10 µM

Structure (SMILES): CN1CCN(c2cccc(Nc3nc4c(NCc5ccccc5F)cccn4n3)c2)CC1 [Example 395, N(8)-(2-Fluoro-benzyl)-N(2)-[3-(4-methyl-piperazin-1-yl)-phenyl]-[1,2,4]triazolo[1,5-a]pyridine-2,8-diamine]
- IC50 (human JAK2): 0.18 µM
- IC50 (human FAK): 1.48 µM
